# Molecular target: T1, RibU W97Y labeled with 5MeW (Lactococcus lactis subsp. cremoris, UniProt D8KIE9, W97Y)
# T1 construct: His10; made in house; host or cells: Lactococcus lactis Trp auxotroph NZ9000-trp with pMG36e-trpRS
# Test: Fluorescence titration of RibU with RBF, 5MeW variant
# Assay type: binding
# Description: Fluorescence titration experiments of the different RibU constructs with RBF at 20 °C allowed estimation of the impact of W68 fluorination or 5-methylation on the binding affinity (Figure 3 and Table 5).
# Figure 3 Titration of Trp analog labeled RibU W97Y proteins with RBF. The RBF fluorescence was measured at the indicated RBF concentrations in the absence (triangles) or presence (dots) of the W97Y RibU variant (see insets). The difference between these two signals were calculated to build the titration curve. This curve was used to compute the RBF Kd (see Experimental Section in the Supporting Information). […]
# Binding assays – Fluorescence titrations of RibU with RBF.
# The concentration of the riboflavin stock was established using a Jasco V-650 spectrophotometer with an ε435 of 12600 M-1.cm-1 The concentration of RibU-His was calculated using a Nanodrop (Thermo […]
# Riboflavin was excited at 435 nm and emission was recorded between 450 nm and 700 nm using a FluoroLog 322 Spectrofluorometer (Jobin Yvon). […] Titration experiments were performed in a 1 mL quartz cuvette at 20 °C as described.13 In brief, purified and desalted RibU protein in gel filtration buffer was titrated with RBF and after each addition the emission spectrum was recorded twice, corrected for buffer emission and instrument response and integrated. […]
# T1 sequence (D8KIE9 whole entry W97Y): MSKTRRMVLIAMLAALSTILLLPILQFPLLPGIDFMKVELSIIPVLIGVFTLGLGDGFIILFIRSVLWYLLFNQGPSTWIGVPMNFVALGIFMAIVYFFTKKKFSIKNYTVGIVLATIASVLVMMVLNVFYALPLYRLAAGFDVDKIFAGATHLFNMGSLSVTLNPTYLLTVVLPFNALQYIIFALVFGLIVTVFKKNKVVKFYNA
smiles,measurement,value
"Cc1cc2nc3c(=O)[nH]c(=O)nc-3n(C[C@H](O)[C@H](O)[C@H](O)CO)c2cc1C [RBF, riboflavin]",Kd,1.2 ± 0.1 nM

# From article PMC9354243, “The Role of Tryptophan in π Interactions in Proteins: An Experimental Approach” (Journal of the American Chemical Society, 2022)
